From publication PMC6530925 (Nature metabolism, 2019)

Target: T1, Slc12a8 (Mus musculus, UniProt Q8VI23)
T1 sequence (Q8VI23 1-705): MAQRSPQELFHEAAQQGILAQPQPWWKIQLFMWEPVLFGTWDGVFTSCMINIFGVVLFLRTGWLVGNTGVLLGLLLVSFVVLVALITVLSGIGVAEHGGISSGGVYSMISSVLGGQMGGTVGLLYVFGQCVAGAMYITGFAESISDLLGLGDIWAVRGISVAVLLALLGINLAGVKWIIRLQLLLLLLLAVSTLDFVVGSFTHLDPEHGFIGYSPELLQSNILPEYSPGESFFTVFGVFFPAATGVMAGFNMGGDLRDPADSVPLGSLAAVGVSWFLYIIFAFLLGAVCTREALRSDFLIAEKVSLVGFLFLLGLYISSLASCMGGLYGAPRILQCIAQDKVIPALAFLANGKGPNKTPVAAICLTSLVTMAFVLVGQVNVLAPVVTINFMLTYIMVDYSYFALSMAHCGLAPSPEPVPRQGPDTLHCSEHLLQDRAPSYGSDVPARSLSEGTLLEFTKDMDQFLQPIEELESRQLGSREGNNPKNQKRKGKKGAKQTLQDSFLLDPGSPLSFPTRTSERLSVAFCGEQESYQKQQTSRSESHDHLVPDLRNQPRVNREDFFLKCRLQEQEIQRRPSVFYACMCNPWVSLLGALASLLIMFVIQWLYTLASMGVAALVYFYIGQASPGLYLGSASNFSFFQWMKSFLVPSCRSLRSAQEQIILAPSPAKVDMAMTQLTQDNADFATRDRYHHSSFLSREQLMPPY
Assay: 3H-NMN uptake into Slc12a8-OE proteoliposomes with cold NMN competition
Type: biochemical

NC(=O)c1ccc[n+]([C@@H]2O[C@H](COP(=O)([O-])O)[C@@H](O)[C@H]2O)c1 [NMN, Nicotinamide mononucleotide]
IC50: 22.8 ± 3.6 µM
